Legend:
[1] = system: EP1 receptor-deficient mice; test: Aggressive behavior after administering haloperidol; type: in vivo; conditions: EP1 receptor-deficient mice given haloperidol
Protocol: After two male mice (wild mice (WT) or EP1 receptor-deficient mice) were put in 3 L of glass container and stimulated by the electroshock (1 H, 200 m seconds, 0.3 mA for 3 minutes), these aggressive behaviors were recorded to the video. The time up to the first aggressive behavior (latency; second) and the attack frequency, and total attack time was compared.
(§1) The action admitted when wild mice (WT) or EP1 receptor-deficient mice cohabit with young male mice (5 weeks of ages) was observed.
As a result of experiment similar to experiment example 6 by administering haloperidol to EP1 receptor-deficient mice, it was confirmed that the time up to the first attack elongates, the attack frequency decreases, and the total of attack time shortens.

[2] = system: EP1 receptor-deficient mice; test: Spontaneous locomotor activity after administering haloperidol; type: in vivo; conditions: EP1 receptor-deficient mice given haloperidol
Protocol: Furthermore, it was also confirmed that the spontaneous locomotor activity decreased when haloperidol was administered to EP1 receptor-deficient mice.

WT mice = test: Action of jumping off platform; type: in vivo; conditions: 10 mg/kg i.p., about 20 cm high platform, 7 minutes, FIG. 5
Protocol: Wild mice, EP1 or EP3 receptor-deficient mice, or WT mice to which 10 mg/kg of EP1 antagonist (the same as experiment example 1 was used.) was intraperitoneally administered put on about 20 cm high platform (beaker), and the presence of the action of jumping off was observed.

ACTH in plasma = test: ACTH production by LPS induction; type: in vivo, C57BL/6 strain mice; conditions: wild type mice; LPS 0.1 mg/kg i.p.; blood 60 minutes after LPS; EP1 antagonist given 1 hour before LPS; FIG. 2
Protocol: 0.1 mg/kg of LPS (lipopolysaccharide) as an infectious stress was intraperitoneally administered to C57BL/6 strain mice. The blood be gathered at 60 minutes later after administering LPS, the induced stress reaction, that is, activation of hypothalamus-pituitary-adrenal system were measured as a marker on ACTH in plasma. ACTH was measured with ACTH IRMA kit (Mitsubishi Yuka Medical Co., Tokyo, Japan). (4-[2-(N-isobutyl-2-furanylsulfonylamino)-5-trifluoromethylphenoxymethyl]cinna mic acid (the compound which had been described to example 18(94) in WO98/27053, was used.), which is EP1 antagonist, was administered 1 hour ago before administering LPS.

wild mice = test: Social behaviors on cohabiting with young male mice (smelling action); type: in vivo; conditions: wild mice cohabiting with young male mice (5 weeks of age)
Text: as §1

C57BL/6 mice = test: Decrease of spontaneous locomotor activity by LPS induction; type: in vivo; conditions: wild mice; LPS 0.1 mg/kg i.p.; 0.1% (W/W) EP1 antagonist mixed with food; 12 hours, 8 p.m. to 8 a.m.; FIG. 4
Protocol: 0.1 mg/kg of LPS is intraperitoneally administered to C57BL/6 mice, they are put in acrylic cage (30×45×35 cm (height), and the momentum for 12 hours from the 8 p.m. to 8 a.m. of next morning was measured with mouse action meter, Infrared photo beam counter (Neuroscience Co., Ltd., Tokyo, Japan). 0.1% (W/W) of EP1 antagonist (the same as experiment example 1 was used) mixed with food was given. Similarly, the difference of the momentum by administering LPS were compared by using wild mice (WT) and EP1 receptor-deficient mice.

Compound | attack frequency [1] | time up to the first attack [1] | total of attack time [1] | spontaneous locomotor activity [2] | mice jumped off the platform (WT mice) | amount of ACTH production by LPS-induction (ACTH in plasma) | time of the smelling action (wild mice) | decrease of the spontaneous locomotor activity induced by LPS (C57BL/6 mice)
O=C(CCCN1CCC(O)(c2ccc(Cl)cc2)CC1)c1ccc(F)cc1 [haloperidol] | decreases | elongates | shortens | decreased |  |  |  | 
CC(C)CN(c1ccc(C(F)(F)F)cc1OCc1ccc(C=CC(=O)O)cc1)S(=O)(=O)c1ccco1 [EP1 antagonist, 4-[2-(N-isobutyl-2-furanylsulfonylamino)-5-trifluoromethylphenoxymethyl]cinna mic acid] |  |  |  |  | All mice in the EP1 antagonist administrated group jumped off the platform 7 minutes later | significantly decreases | shortened | has decreased
